Experimental data taken from the supplement of paper PMC10307832.

Tests used:
Assay in all cases: relative viability (nuclei count vs DMSO), 5 days (fraction); higher = more cells survive
LCLC-103H = test system: LCLC-103H
Summary of the method: (§1)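 Relative viability is defined as nuclei in treated wells over nuclei in vehicle wells. Duplicate plates were run and medians reported. Lung cancer cell lines in 1536-well plates were dosed by pin tool one day after seeding, with one drug or with a fixed anchor-drug dose plus five library-drug doses (not always all listed) in √10 steps, and nuclei were counted after 5 days.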

LOU-NH91 = test system: LOU-NH91
Summary of the method: as §1

NCI-H1734 = test system: NCI-H1734
Summary of the method: as §1

NCI-H1355 = test system: NCI-H1355
Summary of the method: as §1

NCI-H2342 = test system: NCI-H2342
Summary of the method: as §1

NCI-H1666 = test system: NCI-H1666
Summary of the method: as §1

NCI-H441 = test system: NCI-H441
Summary of the method: as §1

RERF-LC-KJ = test system: RERF-LC-KJ
Summary of the method: as §1

SK-LU-1 = test system: SK-LU-1
Summary of the method: as §1

H3255 = test system: H3255
Summary of the method: as §1

NCI-H1975 = test system: NCI-H1975
Summary of the method: as §1

NCI-H647 = test system: NCI-H647
Summary of the method: as §1

NCI-H1793 = test system: NCI-H1793
Summary of the method: as §1

NCI-H1915 = test system: NCI-H1915
Summary of the method: as §1

NCI-H1944 = test system: NCI-H1944
Summary of the method: as §1

NCI-H1651 = test system: NCI-H1651
Summary of the method: as §1

NCI-H2023 = test system: NCI-H2023
Summary of the method: as §1

UMC-11 = test system: UMC-11
Summary of the method: as §1

NCI-H2405 = test system: NCI-H2405
Summary of the method: as §1

201T = test system: 201T
Summary of the method: as §1

EPLC-272H = test system: EPLC-272H
Summary of the method: as §1

COCC1(CO)C(=O)C2CCN1CC2 (stereo not given) [PRIMA-1MET] + COc1cc2c(Oc3ccc(NC(=O)C4(C(=O)Nc5ccc(F)cc5)CC4)cc3F)ccnc2cc1OCCCN1CCOCC1 [Foretinib] (partner 0.25 µM)
relative viability (LCLC-103H; first compound 0.2 µM): 0.915
relative viability (LCLC-103H; first compound 0.6325 µM): 0.718
relative viability (LCLC-103H; first compound 2 µM): 0.698
relative viability (LCLC-103H; first compound 6.325 µM): 0.726
relative viability (LCLC-103H; first compound 20 µM): 0.189
relative viability (LOU-NH91; first compound 0.2 µM): 1.04
relative viability (LOU-NH91; first compound 0.6325 µM): 0.992
relative viability (LOU-NH91; first compound 2 µM): 0.861
relative viability (LOU-NH91; first compound 6.325 µM): 1
relative viability (LOU-NH91; first compound 20 µM): 0.8
relative viability (NCI-H1734; first compound 0.2 µM): 1.04
relative viability (NCI-H1734; first compound 0.6325 µM): 0.741
relative viability (NCI-H1734; first compound 2 µM): 0.741
relative viability (NCI-H1734; first compound 6.325 µM): 0.759
relative viability (NCI-H1734; first compound 20 µM): 0.0666
relative viability (NCI-H1355; first compound 0.2 µM): 1.02
relative viability (NCI-H1355; first compound 0.6325 µM): 0.846
relative viability (NCI-H1355; first compound 2 µM): 1.01
relative viability (NCI-H1355; first compound 6.325 µM): 1.01
relative viability (NCI-H1355; first compound 20 µM): 0.956
relative viability (NCI-H2342; first compound 0.2 µM): 1.06
relative viability (NCI-H2342; first compound 0.6325 µM): 0.986
relative viability (NCI-H2342; first compound 2 µM): 0.887
relative viability (NCI-H2342; first compound 6.325 µM): 1.01
relative viability (NCI-H2342; first compound 20 µM): 0.99
relative viability (NCI-H1666; first compound 0.2 µM): 0.959
relative viability (NCI-H1666; first compound 0.6325 µM): 0.906
relative viability (NCI-H1666; first compound 2 µM): 0.942
relative viability (NCI-H1666; first compound 6.325 µM): 0.952
relative viability (NCI-H1666; first compound 20 µM): 0.908
relative viability (NCI-H441; first compound 0.2 µM): 0.954
relative viability (NCI-H441; first compound 0.6325 µM): 0.908
relative viability (NCI-H441; first compound 2 µM): 0.988
relative viability (NCI-H441; first compound 6.325 µM): 1
relative viability (NCI-H441; first compound 20 µM): 0.496
relative viability (RERF-LC-KJ; first compound 0.2 µM): 0.872
relative viability (RERF-LC-KJ; first compound 0.6325 µM): 0.878
relative viability (RERF-LC-KJ; first compound 2 µM): 0.922
relative viability (RERF-LC-KJ; first compound 6.325 µM): 0.957
relative viability (RERF-LC-KJ; first compound 20 µM): 0.819
relative viability (SK-LU-1; first compound 0.2 µM): 1
relative viability (SK-LU-1; first compound 0.6325 µM): 0.863
relative viability (SK-LU-1; first compound 2 µM): 0.885
relative viability (SK-LU-1; first compound 6.325 µM): 0.834
relative viability (SK-LU-1; first compound 20 µM): 0.405
relative viability (H3255; first compound 0.2 µM): 0.822
relative viability (H3255; first compound 0.6325 µM): 0.947
relative viability (H3255; first compound 2 µM): 0.807
relative viability (H3255; first compound 6.325 µM): 1.05
relative viability (H3255; first compound 20 µM): 0.924
relative viability (NCI-H1975; first compound 0.2 µM): 1.07
relative viability (NCI-H1975; first compound 0.6325 µM): 0.958
relative viability (NCI-H1975; first compound 2 µM): 0.916
relative viability (NCI-H1975; first compound 6.325 µM): 1.01
relative viability (NCI-H1975; first compound 20 µM): 0.626
relative viability (NCI-H647; first compound 0.2 µM): 1.29
relative viability (NCI-H647; first compound 0.6325 µM): 0.973
relative viability (NCI-H647; first compound 2 µM): 1.08
relative viability (NCI-H647; first compound 6.325 µM): 1.22
relative viability (NCI-H647; first compound 20 µM): 1.16
relative viability (NCI-H1793; first compound 0.2 µM): 0.858
relative viability (NCI-H1793; first compound 0.6325 µM): 0.563
relative viability (NCI-H1793; first compound 6.325 µM): 0.846
relative viability (NCI-H1793; first compound 20 µM): 0.491
relative viability (NCI-H1915; first compound 0.2 µM): 1.12
relative viability (NCI-H1915; first compound 0.6325 µM): 0.958
relative viability (NCI-H1915; first compound 6.325 µM): 1.08
relative viability (NCI-H1915; first compound 20 µM): 1.05
relative viability (NCI-H1944; first compound 0.2 µM): 1.02
relative viability (NCI-H1944; first compound 0.6325 µM): 0.789
relative viability (NCI-H1944; first compound 2 µM): 0.837
relative viability (NCI-H1944; first compound 6.325 µM): 0.881
relative viability (NCI-H1944; first compound 20 µM): 0.861
relative viability (NCI-H1651; first compound 0.2 µM): 0.87
relative viability (NCI-H1651; first compound 0.6325 µM): 0.578
relative viability (NCI-H1651; first compound 2 µM): 0.77
relative viability (NCI-H1651; first compound 6.325 µM): 0.933
relative viability (NCI-H1651; first compound 20 µM): 0.827
relative viability (NCI-H2023; first compound 0.2 µM): 1.03
relative viability (NCI-H2023; first compound 0.6325 µM): 0.781
relative viability (NCI-H2023; first compound 2 µM): 0.827
relative viability (NCI-H2023; first compound 6.325 µM): 0.915
relative viability (NCI-H2023; first compound 20 µM): 0.813
relative viability (UMC-11; first compound 0.2 µM): 1.15
relative viability (UMC-11; first compound 0.6325 µM): 0.916
relative viability (UMC-11; first compound 2 µM): 0.963
relative viability (UMC-11; first compound 6.325 µM): 0.979
relative viability (UMC-11; first compound 20 µM): 1.02
relative viability (NCI-H2405; first compound 0.2 µM): 1.03
relative viability (NCI-H2405; first compound 0.6325 µM): 1.03
relative viability (NCI-H2405; first compound 6.325 µM): 1.03
relative viability (NCI-H2405; first compound 20 µM): 0.506
relative viability (201T; first compound 0.2 µM): 1.33
relative viability (201T; first compound 0.6325 µM): 1.09
relative viability (201T; first compound 2 µM): 0.97
relative viability (201T; first compound 6.325 µM): 1.15
relative viability (201T; first compound 20 µM): 1.08
relative viability (EPLC-272H; first compound 2 µM): 0.603
relative viability (EPLC-272H; first compound 6.325 µM): 0.896
relative viability (EPLC-272H; first compound 20 µM): 0.105
